The text below walks through data of patent EP1242382B1, “TRICYCLIC PROTEIN KINASE INHIBITORS” (Wyeth, priority 1999, dated 2001).

Type in all cases: biochemical
In assay [1] the target is Mitogen Activated Protein Kinase (Mek-Erk) (Homo sapiens, UniProt P28482+Q02750). Kind of assay: Mitogen Activated Protein Kinase (MAPK) two component coupled test procedure.
Description: To evaluate inhibitors of the MAP (mitogen activated protein) kinase a two component coupled standard pharmacological test procedure, which measures phosphorylation of a serine/threonine residue in an appropriate sequence in the substrate in the presence and absence of a putative inhibitor, is used. Recombinant human MEK 1 (MAPKK) is first used to activate recombinant human ERK2 (MAPK) and the activated MAPK (ERK) is incubated with substrate (myelin basic protein peptide (MBPP) or Myc peptide) in the presence of ATP, Mg^+2 and radiolabeled ^33P ATP. The phosphorylated peptide is captured on a P 81 phosphocellulose filter (paper filter or embedded in microtiter plate) washed and counted by scintillation methods.
The peptide substrates used in the assay are MBPP, peptide substrate ([sequence]), or synthetic Myc substrate, ([sequence]•5 TFA). The recombinant enzymes used are prepared as GST fusion proteins of human ERK 2 and human MEK 1. […]
The reaction is run as follows in 50 mM Tris kinase buffer, pH 7.4 in a reaction volume of 50 ul. […] The filters are briefly air dried before addition of scintillant and samples are counted in the appropriate scintillation counter set up for reading ^33P isotope.
The raw data is captured as cpm. […] Mean cpm data is tabulated by group and % inhibition by a test compound is calculated as (corrected cpm control-corrected. cpm sample/control) X 100 = % inhibition).
The target in assay [2] is T1, Kinase insert Domain containing Receptor (KDR; the catalytic domain of the VEGF receptor) (Homo sapiens, UniProt P35968).
T1 construct: KDR; the catalytic domain of the VEGF receptor
Kind of assay: Inhibition of Kinase insert Domain containing Receptor (KDR). The settings on record: read-out: KDR %Inh (10 µM). The protocol:
KDR protein is mixed, in the presence or absence of a inhibitor compound, with a substrate peptide to be phosphorylated (a copolymer of glutamic acid and tyrosine, E:Y :: 4:1) and other cofactors such as Mg^++ and sodium vanadate (a protein tyrosine phosphatase inhibitor) in an appropriate buffer to maintain pH (7.2). ATP and a radioactive tracer (either P^32- or P^33-labeled ATP) is then added to initiate phosphorylation. After incubation, the radioactive phosphate associated with the acid-insoluble fraction of the test procedure mixture is then quantified as reflection of substrate phosphorylation.

For assay [3], the target named is T2, p60^c-src (Src) (Homo sapiens, UniProt P12931).
T2 construct: purchased Upstate Biotechnologies
Kind of assay: Src kinase test procedure (Elisa format). Particulars: dose 10 µM; read-out: Src %Inh. The protocol: Inhibitors of p60^c-src (partially purified preparation purchased from Upstate Biotechnologies) tyrosine kinase activity are analyzed in an Elisa format. […] HRP-conjugated anti-phosphotyrosine is used to detect phosphorylated peptide via a color reaction. Conditions recommended by the manufacturer are employed.
Reaction conditions: Five microliter aliquots of each compound prepared fresh at the time of the assay are added as a solution in 10mM HEPES pH 7.5, 10% DMSO to the reaction well. Thirty-five microliters of reaction mix containing Src, buffer and peptide/bovine serum albumin mix are added to the compound wells and incubated at 30°C for 10 minutes (reaction buffer: 50mM TrisHCl pH 7.5, 10mM MgCl2, 0.1mM EGTA, 0.5mM Na3VO4). The reaction is started by addition of 10 microliters of ATP, incubated at 30°C for 1 hour, and stopped by addition of 20 microliters of 0.5M EDTA. The reaction mixture with the phosphorylated peptide is then transferred to a streptavidin-coated microtiter plate (provided in the kit) and allowed to bind for 20 minutes. Unbound peptide and reaction mixture is decanted and the plate is washed with PBS six times. Horseradish peroxidase-conjugated phosphotyrosine antibody supplied in the kit is incubated with the plate for one hour, then decanted. The plate is again washed with PBS six times.

T1 sequence (P35968 834-1162 limits assumed): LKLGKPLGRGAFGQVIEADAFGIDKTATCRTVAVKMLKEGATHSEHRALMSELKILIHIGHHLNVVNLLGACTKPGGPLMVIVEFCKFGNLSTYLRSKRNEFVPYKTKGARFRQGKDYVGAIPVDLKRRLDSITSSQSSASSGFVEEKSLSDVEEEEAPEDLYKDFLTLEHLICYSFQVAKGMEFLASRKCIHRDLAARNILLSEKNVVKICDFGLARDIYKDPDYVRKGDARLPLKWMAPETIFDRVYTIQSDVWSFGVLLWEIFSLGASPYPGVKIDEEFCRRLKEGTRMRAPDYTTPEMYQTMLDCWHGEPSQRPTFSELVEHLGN
Chain of Mitogen Activated Protein Kinase (Mek-Erk) (Q02750 whole entry, the tested form may be a part): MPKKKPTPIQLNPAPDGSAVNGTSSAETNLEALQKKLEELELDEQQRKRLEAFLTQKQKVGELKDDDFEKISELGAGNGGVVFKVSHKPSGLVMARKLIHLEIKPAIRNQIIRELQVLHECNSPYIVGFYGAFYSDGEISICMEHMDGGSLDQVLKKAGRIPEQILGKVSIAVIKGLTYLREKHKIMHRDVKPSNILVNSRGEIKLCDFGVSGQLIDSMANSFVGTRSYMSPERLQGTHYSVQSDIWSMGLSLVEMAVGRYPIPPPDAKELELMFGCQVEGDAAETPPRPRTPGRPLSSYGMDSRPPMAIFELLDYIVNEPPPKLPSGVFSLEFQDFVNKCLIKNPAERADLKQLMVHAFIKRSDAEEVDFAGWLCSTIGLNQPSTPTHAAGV
Chain of Mitogen Activated Protein Kinase (Mek-Erk) (P28482 2-360): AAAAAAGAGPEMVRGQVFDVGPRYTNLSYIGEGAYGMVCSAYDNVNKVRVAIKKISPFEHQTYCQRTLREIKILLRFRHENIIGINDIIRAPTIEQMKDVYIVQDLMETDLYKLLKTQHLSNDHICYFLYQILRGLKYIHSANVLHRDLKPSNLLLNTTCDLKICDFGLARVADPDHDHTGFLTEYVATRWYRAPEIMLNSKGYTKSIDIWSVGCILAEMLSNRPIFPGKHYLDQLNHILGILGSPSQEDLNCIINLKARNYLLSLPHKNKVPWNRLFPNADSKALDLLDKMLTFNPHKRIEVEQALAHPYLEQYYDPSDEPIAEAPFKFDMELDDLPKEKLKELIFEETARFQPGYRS
T2 sequence (P12931 whole entry): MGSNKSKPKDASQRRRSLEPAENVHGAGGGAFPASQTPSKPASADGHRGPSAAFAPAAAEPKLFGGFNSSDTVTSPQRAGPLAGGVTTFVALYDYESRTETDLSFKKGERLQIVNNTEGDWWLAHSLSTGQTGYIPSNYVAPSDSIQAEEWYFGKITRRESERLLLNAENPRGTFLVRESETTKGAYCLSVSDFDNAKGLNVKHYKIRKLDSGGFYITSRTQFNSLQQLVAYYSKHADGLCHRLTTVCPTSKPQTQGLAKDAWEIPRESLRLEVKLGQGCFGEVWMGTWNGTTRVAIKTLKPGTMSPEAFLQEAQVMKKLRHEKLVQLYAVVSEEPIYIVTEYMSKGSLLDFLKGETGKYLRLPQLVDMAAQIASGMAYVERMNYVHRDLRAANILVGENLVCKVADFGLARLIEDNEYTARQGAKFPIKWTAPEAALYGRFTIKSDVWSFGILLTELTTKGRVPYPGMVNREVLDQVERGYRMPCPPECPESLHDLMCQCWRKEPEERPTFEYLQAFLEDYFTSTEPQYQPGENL

As to `N#Cc1cnc2cc3c(cc2c1Nc1ccc(Oc2ccccc2)cc1)ncn3CCN1CCOCC1` [Example 58, 3-[2-(4-Morpholinyl)ethyl]-8-(4-phenoxyanilino)-3H-imidazo[4,5-g]quinoline-7-carbonitrile], the IC50 in assay [1] was more than 10 µM.
Consider `Cc1ccc(Nc2c(C#N)cnc3c2oc2ccccc23)cc1O` [Example 87, 4-(3-Hydroxy-4-methylphenylamino)benzo[4,5]furo[3,2-b]pyridine-3-carbonitrile], for which the inhibition at 10 µM in assay [2] is 32%; in assay [3], 0%.
Regarding `Cc1ccc(Nc2c(C#N)cnc3c2sc2ccccc23)cc1O` [Example 70, 4-(3-Hydroxy-4-methylphenylamino)benzo[4,5]thieno[3,2-b]pyridine-3-carbonitrile], the inhibition at 10 µM in assay [2] came out at 22%.
The compound `N#Cc1cnc2c(oc3ccccc32)c1Nc1ccc(Oc2ccccc2)cc1` [Example 88, 4-(4-Phenoxyphenylamino)benzo[4,5]furo[3,2-b]pyridine-3-carbonitrile] gave an IC50 in assay [1] of more than 100 µM.
